Tests used:
Format in all cases: biochemical
Tek = target: T1, Tek (Homo sapiens, UniProt Q02763); assay: Kinase inhibition assay (33P transfer), Tek; conditions: read-out: Tek-1
T1 construct: Kinases are expressed as either kinase domains or full length constructs; made in house
Summary of the method: (§1)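 Read-out: scintillation counts of 33P moved from ATP onto synthetic peptide polymer coated on the well surface, after washing with 0.5% phosphoric acid. Enzymes were tagged (GST or polyHistidine) and came from bacterial or insect-cell expression. IC50 marks 50% loss of incorporated label.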

AKT = target: T2, AKT (Homo sapiens, UniProt Q9Y243); assay: Kinase inhibition assay (33P transfer), AKT; conditions: Table 2, kinase inhibition class; read-out: AKT3-1
T2 construct: Kinases are expressed as either kinase domains or full length constructs; made in house
Summary of the method: (§2)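 Enzyme activity is taken as the amount of 33PO4 moved from ATP onto poly(Glu, Tyr) 4:1 or poly(Arg, Ser) 3:1 fixed to the plate surface. Unbound label is removed with 0.5% phosphoric acid before scintillation counting.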

Lck = target: T3, Lck (Homo sapiens, UniProt P06239); assay: Kinase inhibition assay (33P transfer), Lck; conditions: Table 3; read-out: Lck-1
T3 construct: Kinases are expressed as either kinase domains or full length constructs; made in house
Summary of the method: as §2

c-Met = target: T4, c-Met (Homo sapiens, UniProt P08581); assay: Kinase inhibition assay (33P transfer), c-Met; conditions: Table 2, kinase inhibition class; read-out: Met-1
T4 construct: Kinases are expressed as either kinase domains or full length constructs; made in house
Summary of the method: as §1

FGFR1 = target: T5, FGFR1 (Homo sapiens, UniProt P11362); assay: Kinase inhibition assay (33P transfer), FGFR1; conditions: read-out: FGFR1-1
T5 construct: Kinases are expressed as either kinase domains or full length constructs; made in house

Flt-1 = target: T6, Flt-1 (Homo sapiens, UniProt P17948); assay: Kinase inhibition assay (33P transfer), Flt-1
T6 construct: Kinases are expressed as either kinase domains or full length constructs; made in house
Summary of the method: as §1

EGFR = target: T7, EGFR (Homo sapiens, UniProt P00533); assay: Kinase inhibition assay (33P transfer), EGFR; conditions: Table 2, kinase inhibition class; read-out: EGFR-1
T7 construct: Kinases are expressed as either kinase domains or full length constructs; made in house
Summary of the method: as §1

Kdr = target: T8, Kdr (Homo sapiens, UniProt P35968); assay: Kinase inhibition assay (33P transfer), Kdr; conditions: Table 3; read-out: KDR-1
T8 construct: Kinases are expressed as either kinase domains or full length constructs; made in house
Summary of the method: as §2

Hck-1 = target: T9, Hck-1 (Homo sapiens, UniProt P08631); assay: Kinase inhibition assay (33P transfer), Hck; conditions: Table 6, Hck-1 kinase inhibition class
T9 construct: Kinases are expressed as either kinase domains or full length constructs; made in house

Lyn = target: T10, Lyn (Homo sapiens, UniProt P07948); assay: Kinase inhibition assay (33P transfer), Lyn; conditions: Table 6, Lyn-1 kinase inhibition class
T10 construct: Kinases are expressed as either kinase domains or full length constructs; made in house
Summary of the method: as §1

Fyn = target: T11, Fyn (Homo sapiens, UniProt P06241); assay: Kinase inhibition assay (33P transfer), Fyn; conditions: read-out: Fyn-1
T11 construct: Kinases are expressed as either kinase domains or full length constructs; made in house
Summary of the method: as §1

Itk = target: T12, Itk (Homo sapiens, UniProt Q08881); assay: Kinase inhibition assay (33P transfer), Itk; conditions: Table 3; read-out: Itk-1
T12 construct: Kinases are expressed as either kinase domains or full length constructs; made in house
T12 sequence (Q08881 1-620): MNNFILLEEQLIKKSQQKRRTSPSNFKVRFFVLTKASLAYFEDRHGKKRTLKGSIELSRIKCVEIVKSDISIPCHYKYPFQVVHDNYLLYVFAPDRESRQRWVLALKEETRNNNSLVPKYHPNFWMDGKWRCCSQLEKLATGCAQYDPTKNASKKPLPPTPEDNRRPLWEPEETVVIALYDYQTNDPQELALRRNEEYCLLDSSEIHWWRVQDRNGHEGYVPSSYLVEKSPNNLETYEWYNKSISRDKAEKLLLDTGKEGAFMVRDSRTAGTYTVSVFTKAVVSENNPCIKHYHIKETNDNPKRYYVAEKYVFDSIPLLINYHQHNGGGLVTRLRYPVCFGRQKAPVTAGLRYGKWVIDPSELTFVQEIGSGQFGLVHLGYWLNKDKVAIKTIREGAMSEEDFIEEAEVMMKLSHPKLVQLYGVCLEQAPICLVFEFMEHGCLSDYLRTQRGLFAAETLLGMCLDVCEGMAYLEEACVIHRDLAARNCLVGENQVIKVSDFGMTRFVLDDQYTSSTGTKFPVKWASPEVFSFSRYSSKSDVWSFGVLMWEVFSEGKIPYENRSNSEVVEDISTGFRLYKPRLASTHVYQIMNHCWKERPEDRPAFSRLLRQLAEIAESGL
Summary of the method: as §1

PDGFRB = target: T13, PDGFRB (Homo sapiens, UniProt P09619); assay: Kinase inhibition assay (33P transfer), PDGFRB; conditions: read-out: PDGFRB-1
T13 construct: Kinases are expressed as either kinase domains or full length constructs; made in house

Zap-70 = target: T14, Zap-70 (Homo sapiens, UniProt P43403); assay: Kinase inhibition assay (33P transfer), Zap-70; conditions: Table 3; read-out: Zap-1
T14 construct: Kinases are expressed as either kinase domains or full length constructs; made in house
T14 sequence (P43403 1-619): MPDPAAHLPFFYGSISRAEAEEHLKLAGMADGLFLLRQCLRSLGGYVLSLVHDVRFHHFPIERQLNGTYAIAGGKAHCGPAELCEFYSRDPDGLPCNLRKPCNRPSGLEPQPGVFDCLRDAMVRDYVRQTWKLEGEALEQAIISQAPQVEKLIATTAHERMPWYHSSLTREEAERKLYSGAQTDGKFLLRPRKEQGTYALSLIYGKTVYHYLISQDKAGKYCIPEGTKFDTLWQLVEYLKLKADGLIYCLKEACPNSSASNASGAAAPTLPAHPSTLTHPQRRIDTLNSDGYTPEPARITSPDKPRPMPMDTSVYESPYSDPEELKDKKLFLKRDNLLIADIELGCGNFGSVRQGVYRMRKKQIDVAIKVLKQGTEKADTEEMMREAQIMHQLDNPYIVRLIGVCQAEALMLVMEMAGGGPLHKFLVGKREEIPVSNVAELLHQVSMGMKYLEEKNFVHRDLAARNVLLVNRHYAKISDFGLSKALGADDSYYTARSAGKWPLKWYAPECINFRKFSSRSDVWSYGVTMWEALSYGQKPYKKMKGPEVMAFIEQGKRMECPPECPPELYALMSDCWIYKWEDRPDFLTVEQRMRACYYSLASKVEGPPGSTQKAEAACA
Summary of the method: as §2

Src = target: T15, Src (Homo sapiens, UniProt P12931); assay: Kinase inhibition assay (33P transfer), Src; conditions: Table 6, Src-1 kinase inhibition class
T15 construct: Kinases are expressed as either kinase domains or full length constructs; made in house
Summary of the method: as §1

ErbB4 = target: T16, ErbB4 (Homo sapiens, UniProt Q15303); assay: Kinase inhibition assay (33P transfer), ErbB4; conditions: read-out: ErbB4-1
T16 construct: Kinases are expressed as either kinase domains or full length constructs; made in house

T8 sequence (P35968 20-1356, species assumed): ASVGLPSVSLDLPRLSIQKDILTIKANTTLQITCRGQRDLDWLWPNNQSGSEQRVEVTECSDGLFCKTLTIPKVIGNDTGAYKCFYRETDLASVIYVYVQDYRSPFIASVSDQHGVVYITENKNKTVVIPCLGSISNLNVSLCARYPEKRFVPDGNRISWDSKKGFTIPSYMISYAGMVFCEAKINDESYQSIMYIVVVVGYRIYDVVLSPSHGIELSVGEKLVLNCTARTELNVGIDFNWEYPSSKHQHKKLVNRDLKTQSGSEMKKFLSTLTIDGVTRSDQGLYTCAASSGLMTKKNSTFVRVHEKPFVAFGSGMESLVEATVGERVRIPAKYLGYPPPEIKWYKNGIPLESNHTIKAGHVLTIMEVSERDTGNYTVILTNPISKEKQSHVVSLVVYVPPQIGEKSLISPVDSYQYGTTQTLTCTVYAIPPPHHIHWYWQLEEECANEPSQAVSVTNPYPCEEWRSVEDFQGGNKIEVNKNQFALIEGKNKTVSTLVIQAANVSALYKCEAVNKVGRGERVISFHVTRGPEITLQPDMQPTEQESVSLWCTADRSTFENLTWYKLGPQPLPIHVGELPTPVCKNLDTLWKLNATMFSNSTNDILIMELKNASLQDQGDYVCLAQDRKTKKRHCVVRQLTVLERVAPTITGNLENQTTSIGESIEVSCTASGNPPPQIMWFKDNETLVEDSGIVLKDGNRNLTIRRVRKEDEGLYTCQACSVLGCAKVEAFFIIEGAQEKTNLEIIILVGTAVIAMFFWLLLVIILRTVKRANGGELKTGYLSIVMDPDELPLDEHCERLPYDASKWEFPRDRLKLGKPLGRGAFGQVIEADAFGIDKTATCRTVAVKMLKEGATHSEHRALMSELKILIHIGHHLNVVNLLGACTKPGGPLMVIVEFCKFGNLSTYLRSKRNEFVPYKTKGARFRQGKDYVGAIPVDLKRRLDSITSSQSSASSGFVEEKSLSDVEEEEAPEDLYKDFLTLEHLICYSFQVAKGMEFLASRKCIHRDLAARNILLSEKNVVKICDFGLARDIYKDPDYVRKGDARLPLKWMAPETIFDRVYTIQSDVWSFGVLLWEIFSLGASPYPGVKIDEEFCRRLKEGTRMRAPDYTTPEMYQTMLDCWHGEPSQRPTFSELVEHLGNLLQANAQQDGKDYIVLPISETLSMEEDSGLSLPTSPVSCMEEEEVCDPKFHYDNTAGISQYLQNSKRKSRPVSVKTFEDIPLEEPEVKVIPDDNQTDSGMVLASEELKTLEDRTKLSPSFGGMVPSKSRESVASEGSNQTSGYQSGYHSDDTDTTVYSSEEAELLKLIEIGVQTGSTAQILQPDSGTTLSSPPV
T3 sequence (P06239 whole entry, species assumed, the tested form may be a part): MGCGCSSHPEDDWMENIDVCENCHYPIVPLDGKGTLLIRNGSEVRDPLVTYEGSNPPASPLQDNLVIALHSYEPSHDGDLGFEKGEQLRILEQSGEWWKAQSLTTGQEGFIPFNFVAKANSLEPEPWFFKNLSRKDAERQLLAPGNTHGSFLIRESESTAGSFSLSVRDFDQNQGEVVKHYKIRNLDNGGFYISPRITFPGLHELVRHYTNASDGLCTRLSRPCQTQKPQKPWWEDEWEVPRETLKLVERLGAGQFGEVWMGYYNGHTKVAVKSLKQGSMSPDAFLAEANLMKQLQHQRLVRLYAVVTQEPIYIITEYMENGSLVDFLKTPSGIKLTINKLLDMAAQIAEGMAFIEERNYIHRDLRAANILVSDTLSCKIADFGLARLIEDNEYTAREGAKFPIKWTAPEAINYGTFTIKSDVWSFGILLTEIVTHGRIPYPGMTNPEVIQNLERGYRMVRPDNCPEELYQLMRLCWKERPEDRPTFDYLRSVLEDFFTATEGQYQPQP
T15 sequence (P12931 whole entry, species assumed, the tested form may be a part): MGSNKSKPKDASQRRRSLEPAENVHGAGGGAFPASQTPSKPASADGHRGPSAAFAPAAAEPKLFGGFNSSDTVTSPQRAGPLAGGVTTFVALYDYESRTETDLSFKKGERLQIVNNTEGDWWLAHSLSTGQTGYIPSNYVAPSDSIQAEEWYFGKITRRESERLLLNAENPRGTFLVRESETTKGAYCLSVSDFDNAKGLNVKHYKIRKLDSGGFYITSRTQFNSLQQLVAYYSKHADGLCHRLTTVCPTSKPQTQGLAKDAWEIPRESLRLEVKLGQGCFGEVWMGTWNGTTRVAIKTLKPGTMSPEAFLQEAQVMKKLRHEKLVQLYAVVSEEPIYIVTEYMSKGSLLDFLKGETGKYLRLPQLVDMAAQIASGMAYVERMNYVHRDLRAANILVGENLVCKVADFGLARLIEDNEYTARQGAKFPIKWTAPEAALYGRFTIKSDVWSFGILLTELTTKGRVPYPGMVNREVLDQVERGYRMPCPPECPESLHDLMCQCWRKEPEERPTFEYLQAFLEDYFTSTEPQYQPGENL
T13 sequence (P09619 33-1106, species assumed): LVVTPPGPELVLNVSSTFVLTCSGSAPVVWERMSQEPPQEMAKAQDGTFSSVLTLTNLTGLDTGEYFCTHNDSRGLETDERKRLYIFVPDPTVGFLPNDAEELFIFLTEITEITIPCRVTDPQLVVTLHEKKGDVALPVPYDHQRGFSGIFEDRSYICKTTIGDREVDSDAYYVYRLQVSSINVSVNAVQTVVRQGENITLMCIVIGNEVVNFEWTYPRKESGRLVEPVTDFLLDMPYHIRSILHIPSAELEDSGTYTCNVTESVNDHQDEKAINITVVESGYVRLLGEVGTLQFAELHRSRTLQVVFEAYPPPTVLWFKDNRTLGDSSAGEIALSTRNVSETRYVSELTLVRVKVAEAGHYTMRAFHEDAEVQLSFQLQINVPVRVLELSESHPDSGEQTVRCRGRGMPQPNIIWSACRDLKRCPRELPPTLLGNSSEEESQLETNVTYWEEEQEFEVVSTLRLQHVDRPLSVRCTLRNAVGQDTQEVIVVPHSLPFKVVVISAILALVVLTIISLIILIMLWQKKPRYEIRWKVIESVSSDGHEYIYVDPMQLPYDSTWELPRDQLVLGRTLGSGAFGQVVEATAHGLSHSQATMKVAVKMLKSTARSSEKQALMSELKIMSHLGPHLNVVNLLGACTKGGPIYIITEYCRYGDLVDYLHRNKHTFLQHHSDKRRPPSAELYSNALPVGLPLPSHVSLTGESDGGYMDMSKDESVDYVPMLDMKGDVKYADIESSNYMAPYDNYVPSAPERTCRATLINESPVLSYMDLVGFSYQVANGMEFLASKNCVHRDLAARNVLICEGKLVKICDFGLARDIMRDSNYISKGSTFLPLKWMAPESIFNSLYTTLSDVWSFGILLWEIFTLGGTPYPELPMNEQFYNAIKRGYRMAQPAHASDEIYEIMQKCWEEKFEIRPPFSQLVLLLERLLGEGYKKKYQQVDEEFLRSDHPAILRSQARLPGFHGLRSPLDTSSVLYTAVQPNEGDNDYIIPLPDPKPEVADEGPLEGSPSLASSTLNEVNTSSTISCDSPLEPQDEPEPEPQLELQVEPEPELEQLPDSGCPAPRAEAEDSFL
T4 sequence (P08581 25-1390): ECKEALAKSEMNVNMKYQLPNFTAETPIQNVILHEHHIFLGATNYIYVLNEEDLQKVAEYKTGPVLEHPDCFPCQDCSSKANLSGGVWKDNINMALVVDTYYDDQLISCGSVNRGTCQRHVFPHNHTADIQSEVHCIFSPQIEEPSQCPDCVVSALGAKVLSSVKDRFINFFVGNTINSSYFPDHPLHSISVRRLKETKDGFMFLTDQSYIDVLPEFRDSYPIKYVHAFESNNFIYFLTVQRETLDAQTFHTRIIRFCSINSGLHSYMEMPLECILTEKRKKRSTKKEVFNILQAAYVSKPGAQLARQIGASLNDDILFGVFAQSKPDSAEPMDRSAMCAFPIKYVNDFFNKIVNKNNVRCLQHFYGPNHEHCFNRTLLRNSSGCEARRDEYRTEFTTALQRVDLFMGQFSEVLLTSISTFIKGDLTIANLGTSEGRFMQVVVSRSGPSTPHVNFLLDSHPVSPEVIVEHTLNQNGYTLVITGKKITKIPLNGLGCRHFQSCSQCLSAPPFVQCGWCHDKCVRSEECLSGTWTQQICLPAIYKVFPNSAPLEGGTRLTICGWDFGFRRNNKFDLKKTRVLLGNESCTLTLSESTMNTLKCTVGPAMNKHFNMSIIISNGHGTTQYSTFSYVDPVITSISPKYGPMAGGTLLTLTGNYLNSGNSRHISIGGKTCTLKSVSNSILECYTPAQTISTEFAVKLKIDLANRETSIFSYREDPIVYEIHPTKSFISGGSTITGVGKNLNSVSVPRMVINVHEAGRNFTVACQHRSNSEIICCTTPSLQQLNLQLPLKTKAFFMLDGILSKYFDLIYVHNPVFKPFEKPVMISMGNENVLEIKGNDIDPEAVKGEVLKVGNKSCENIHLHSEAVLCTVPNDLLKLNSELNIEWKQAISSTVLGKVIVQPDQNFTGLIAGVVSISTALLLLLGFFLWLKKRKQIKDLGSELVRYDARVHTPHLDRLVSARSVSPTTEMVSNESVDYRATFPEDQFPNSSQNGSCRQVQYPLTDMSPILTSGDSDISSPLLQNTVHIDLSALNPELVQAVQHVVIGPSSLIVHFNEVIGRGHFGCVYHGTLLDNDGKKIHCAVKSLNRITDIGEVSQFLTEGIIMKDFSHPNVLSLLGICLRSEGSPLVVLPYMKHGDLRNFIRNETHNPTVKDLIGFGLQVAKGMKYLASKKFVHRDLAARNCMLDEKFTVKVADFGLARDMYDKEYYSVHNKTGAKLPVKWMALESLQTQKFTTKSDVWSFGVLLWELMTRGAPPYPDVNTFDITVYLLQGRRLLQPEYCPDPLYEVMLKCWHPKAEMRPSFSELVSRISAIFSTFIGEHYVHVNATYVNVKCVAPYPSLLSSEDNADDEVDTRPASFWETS

| SMILES | IC50 (Tek) | IC50 (AKT) | IC50 (Lck) | IC50 (c-Met) | IC50 (FGFR1) | IC50 (Flt-1) | IC50 (EGFR) | IC50 (Kdr) | IC50 (Hck-1) | IC50 (Lyn) | IC50 (Fyn) | IC50 (Itk) | IC50 (PDGFRB) | IC50 (Zap-70) | IC50 (Src) | IC50 (ErbB4) |
| --- | --- | --- | --- | --- | --- | --- | --- | --- | --- | --- | --- | --- | --- | --- | --- | --- |
| NCc1ccc(Nc2ncnc(Nc3cc(-c4ccco4)n[nH]3)n2)cc1 [Compound 437] | 6.89 to 10 µM | > 12.9 µM | 1.15 to 6.89 µM | 1.15 to 6.89 µM | < 1.15 µM | 1.15 to 6.89 µM | 1.15 to 6.89 µM | < 1.15 µM | 10 to 12.9 µM | 1.15 to 6.89 µM | 1.15 to 6.89 µM | 1.15 to 6.89 µM | < 1.15 µM | > 12.9 µM | 1.15 to 6.89 µM | 1.15 to 6.89 µM |
| COc1ccc(Nc2nc3ccccc3n2-c2ncnc(Nc3cc(OC)c(OC)c(OC)c3)n2)cc1 [Compound 397] | > 9.01 µM | > 9.01 µM | < 0.801 µM | > 9.01 µM | < 0.801 µM | < 0.801 µM | > 9.01 µM | < 0.801 µM | > 9.01 µM | > 9.01 µM | > 9.01 µM | > 9.01 µM | < 0.801 µM | > 9.01 µM | > 9.01 µM | > 9.01 µM |
| COc1cc(Nc2ncnc(-n3ccc4cc(F)ccc43)n2)cc(OC)c1OC [Compound 441] | > 11.4 µM | > 11.4 µM | 6.07 to 8.85 µM | > 11.4 µM | > 11.4 µM | 1.01 to 6.07 µM | > 11.4 µM | < 1.01 µM | > 11.4 µM | > 11.4 µM | 1.01 to 6.07 µM | > 11.4 µM | < 1.01 µM | > 11.4 µM | > 11.4 µM | > 11.4 µM |

Source: patent US7074789B2, “Kinase inhibitors” (Amgen Inc., priority 1999, dated 2006)
